The values that follow are results of earlier work, collected in patent US20230301919A1, “FREEZE DRIED LOW HYGROSCOPICITY ACTIVE POWDER COMPOSITIONS” (PHILIP MORRIS PRODUCTS S.A., priority 2020, published 2023).

The conditions of this data set: at 25° C.

For the molecule `OC[C@H]1O[C@H](O[C@H]2O[C@H](CO)[C@@H](O)[C@H](O)[C@H]2O)[C@H](O)[C@@H](O)[C@@H]1O` [trehalose], the solubility is 69 g/100 ml water.
